Blank lines part the entries; values can stand above or below the compound they belong to.
System: 317291-083-R-J1-PDC complex spheroid growth
Experiment: Anticancer human tumor 317291-083-R-J1-PDC patient-derived soft tissue sarcoma cell line growth inhibition [Asc]
Conditions: for IC50: curve of first compound; for viability, T/C: stronger effect = lower value
Procedure, shortened: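 Spheroid model: tumor line + HUVEC + hMSC. Single agents and combinations; top conc. at/near clinical Cmax (10 microM if undetermined), half-log dilutions. DMSO stocks at 800-fold test concentration.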
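Also: compound exposure lasted seven days after spheroids formed for three days.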
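For viability, T/C in this document: 100% = DMSO vehicle control wells.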

IC50 (second compound 0.00316 µM): 10.4 nM
IC50 (second compound 0.01 µM): 17.5 nM
IC50 (second compound 0.0316 µM): 20.6 nM
IC50 (second compound 0.1 µM): 8.13 nM
IC50 (second compound 0.316 µM): 12.4 nM
IC50 (second compound 1 µM): 2.22 nM
Compound: NC(=O)C(=Cn1cnc(-c2cc(C(F)(F)F)cc(C(F)(F)F)c2)n1)c1cncnc1 + CNC(C)C(=O)NC1CN(S(=O)(=O)c2cccc(S(=O)(=O)N3CCC4CCC(C(=O)NC(c5ccccc5)c5ccccc5)N4C(=O)C(NC(=O)C(C)NC)C3)c2)CCC2CCC(C(=O)NC(c3ccccc3)c3ccccc3)N2C1=O
viability, T/C (second compound 0.00316 µM, first compound 0.000949 µM): 75.5%
viability, T/C (second compound 0.00316 µM, first compound 0.003 µM): 72.6%
viability, T/C (second compound 0.00316 µM, first compound 0.00949 µM): 47.7%
viability, T/C (second compound 0.00316 µM, first compound 0.03 µM): 32.1%
viability, T/C (second compound 0.00316 µM, first compound 0.0949 µM): 5.77%
viability, T/C (second compound 0.00316 µM, first compound 0.3 µM): 2.39%
viability, T/C (second compound 0.01 µM, first compound 0.000949 µM): 105%
viability, T/C (second compound 0.01 µM, first compound 0.003 µM): 96.1%
viability, T/C (second compound 0.01 µM, first compound 0.00949 µM): 74.5%
viability, T/C (second compound 0.01 µM, first compound 0.03 µM): 29.3%
viability, T/C (second compound 0.01 µM, first compound 0.0949 µM): 4.51%
viability, T/C (second compound 0.01 µM, first compound 0.3 µM): 2.62%
viability, T/C (second compound 0.0316 µM, first compound 0.000949 µM): 101%
viability, T/C (second compound 0.0316 µM, first compound 0.003 µM): 92.5%
viability, T/C (second compound 0.0316 µM, first compound 0.00949 µM): 75.6%
viability, T/C (second compound 0.0316 µM, first compound 0.03 µM): 39.5%
viability, T/C (second compound 0.0316 µM, first compound 0.0949 µM): 4.33%
viability, T/C (second compound 0.0316 µM, first compound 0.3 µM): 1.8%
viability, T/C (second compound 0.1 µM, first compound 0.000949 µM): 74.4%
viability, T/C (second compound 0.1 µM, first compound 0.003 µM): 73%
viability, T/C (second compound 0.1 µM, first compound 0.00949 µM): 45.3%
viability, T/C (second compound 0.1 µM, first compound 0.03 µM): 16.6%
viability, T/C (second compound 0.1 µM, first compound 0.0949 µM): 3.12%
viability, T/C (second compound 0.1 µM, first compound 0.3 µM): 1.09%
viability, T/C (second compound 0.316 µM, first compound 0.000949 µM): 63.2%
viability, T/C (second compound 0.316 µM, first compound 0.003 µM): 68.2%
viability, T/C (second compound 0.316 µM, first compound 0.00949 µM): 60.1%
viability, T/C (second compound 0.316 µM, first compound 0.03 µM): 16.1%
viability, T/C (second compound 0.316 µM, first compound 0.0949 µM): 1.31%
viability, T/C (second compound 0.316 µM, first compound 0.3 µM): 2.22%
viability, T/C (second compound 1 µM, first compound 0.000949 µM): 67.3%
viability, T/C (second compound 1 µM, first compound 0.003 µM): 38.9%
viability, T/C (second compound 1 µM, first compound 0.00949 µM): 34.8%
viability, T/C (second compound 1 µM, first compound 0.03 µM): 12.6%
viability, T/C (second compound 1 µM, first compound 0.0949 µM): 2.47%
viability, T/C (second compound 1 µM, first compound 0.3 µM): 1.44%

IC50 (second compound 0.00316 µM): 79.4 nM
IC50 (second compound 0.01 µM): 68.4 nM
IC50 (second compound 0.0316 µM): 68.7 nM
IC50 (second compound 0.1 µM): 5.31 nM
IC50 (second compound 0.316 µM): 43 nM
IC50 (second compound 1 µM): < 3.16 nM
Compound: COc1c(OCCCN2CCOCC2)ccc2c3n(c(=NC(=O)c4cnc(N)nc4)nc12)CCN3 + CNC(C)C(=O)NC1CN(S(=O)(=O)c2cccc(S(=O)(=O)N3CCC4CCC(C(=O)NC(c5ccccc5)c5ccccc5)N4C(=O)C(NC(=O)C(C)NC)C3)c2)CCC2CCC(C(=O)NC(c3ccccc3)c3ccccc3)N2C1=O
viability, T/C (second compound 0.00316 µM, first compound 0.00316 µM): 80.1%
viability, T/C (second compound 0.00316 µM, first compound 0.01 µM): 81%
viability, T/C (second compound 0.00316 µM, first compound 0.0316 µM): 68.1%
viability, T/C (second compound 0.00316 µM, first compound 0.1 µM): 43.5%
viability, T/C (second compound 0.00316 µM, first compound 0.316 µM): 28.3%
viability, T/C (second compound 0.00316 µM, first compound 1 µM): 15.5%
viability, T/C (second compound 0.01 µM, first compound 0.00316 µM): 72.6%
viability, T/C (second compound 0.01 µM, first compound 0.01 µM): 103%
viability, T/C (second compound 0.01 µM, first compound 0.0316 µM): 61.4%
viability, T/C (second compound 0.01 µM, first compound 0.1 µM): 42.6%
viability, T/C (second compound 0.01 µM, first compound 0.316 µM): 22.7%
viability, T/C (second compound 0.01 µM, first compound 1 µM): 13.3%
viability, T/C (second compound 0.0316 µM, first compound 0.00316 µM): 76.5%
viability, T/C (second compound 0.0316 µM, first compound 0.01 µM): 73.2%
viability, T/C (second compound 0.0316 µM, first compound 0.0316 µM): 77%
viability, T/C (second compound 0.0316 µM, first compound 0.1 µM): 37.7%
viability, T/C (second compound 0.0316 µM, first compound 0.316 µM): 18.2%
viability, T/C (second compound 0.0316 µM, first compound 1 µM): 11%
viability, T/C (second compound 0.1 µM, first compound 0.00316 µM): 53.8%
viability, T/C (second compound 0.1 µM, first compound 0.01 µM): 44.8%
viability, T/C (second compound 0.1 µM, first compound 0.0316 µM): 38.9%
viability, T/C (second compound 0.1 µM, first compound 0.1 µM): 34.2%
viability, T/C (second compound 0.1 µM, first compound 0.316 µM): 16.9%
viability, T/C (second compound 0.1 µM, first compound 1 µM): 10.7%
viability, T/C (second compound 0.316 µM, first compound 0.00316 µM): 56%
viability, T/C (second compound 0.316 µM, first compound 0.01 µM): 44.4%
viability, T/C (second compound 0.316 µM, first compound 0.0316 µM): 68.8%
viability, T/C (second compound 0.316 µM, first compound 0.1 µM): 32.3%
viability, T/C (second compound 0.316 µM, first compound 0.316 µM): 13.8%
viability, T/C (second compound 0.316 µM, first compound 1 µM): 11%
viability, T/C (second compound 1 µM, first compound 0.00316 µM): 33.2%
viability, T/C (second compound 1 µM, first compound 0.01 µM): 36%
viability, T/C (second compound 1 µM, first compound 0.0316 µM): 27.2%
viability, T/C (second compound 1 µM, first compound 0.1 µM): 19.2%
viability, T/C (second compound 1 µM, first compound 0.316 µM): 9.14%
viability, T/C (second compound 1 µM, first compound 1 µM): 5.37%
